# According to patent US20100093760A1, “METHODS FOR IDENTIFYING COMPOUNDS THAT MODULATE CELL SIGNALING AND METHODS EMPLOYING SUCH COMPOUNDS” (The General Hospital Corporation, priority 2006, published 2010):
# Entries after “also recorded” stand apart in the source; their conditions may differ.
# Assays:
# MAPK p38 = assay: Immunoblot of BMP4-mediated MAPK p38 phosphorylation in PASMCs; assay type: cell-based, murine; conditions: BMP4 20 ng/ml, 0.2-40 μM
# caALK7 = assay: Constitutively-active ALK7 PAI-1 promoter reporter (CAGA-Luc); assay type: cell-based; conditions: PASMCs, up to 20 μM
# Experimental: Murine PASMCs grown to 50% confluence in 6-well plates were transiently transfected with 0.3 μg Id1 promoter luciferase reporter construct (BRE-Luc, Dr. Peter ten Dijke, Leiden University Medical Center, Netherlands (Korchynskyi et al., J. Biol. Chem. 277:4883-4891, 2002)) in combination with 0.6 μg plasmids expressing constitutively-active forms of BMP type I receptors (caALK2, caALK3, or caALK6, kindly provided by Dr. Kohei Miyazono, University of Tokyo, Japan (Fujii et al., Mol. Biol. Cell 10:3801-3813, 1999)), using Fugene6 (Roche). To assess Activin and […] type I receptor function, PASMCs were transiently transfected with 0.3 μg PAI-1 promoter luciferase reporter construct (CAGA-Luc, Dr. Peter ten Dijke (Dennler et al., Embo J. 17:3091-3100, 1998)) in combination with 0.6 μg plasmids expressing constitutively active forms of type I receptors (caALK4, caALK5, and caALK7, also provided by Dr. Kohei Miyazono (Okadome et al., J. Biol. Chem. 271:21687-21690, 1996; Shimizu et al., Genes Cells 3:125-134, 1998)). For both reporters, 0.2 μg pRL-TK Renilla luciferase (Promega) was used to control for transfection efficiency. […] Cell extracts were harvested, and relative promoter activity quantitated by the ratio of firefly to Renilla luciferase activity using the dual luciferase assay kit (Promega). […] Hepcidin promoter activity was measured by luciferase assay as above.
compound,measurement,setting,value
c1cc(-c2cnn3cc(-c4ccc(OCCN5CCCCC5)cc4)cnc23)ccn1 [Compound C/Dorsomorphin],effect on BMP4-mediated phosphorylation of MAPK p38,MAPK p38,without affecting MAPK p38 activation; also recorded: without inhibiting p38 activation; also recorded: did not affect; also recorded: does not exhibit significant inhibition
same,effect on caALK7-mediated PAI-1 promoter activity (CAGA-Luc),caALK7,did not inhibit; also recorded: not decreased
